According to ChEMBL document CHEMBL1126682, “Quinolone antimicrobial agents substituted with morpholines at the 7-position. Syntheses and structure-activity relationships” (J Med Chem, 1993):
≈ marks a conversion by molar mass, not a printed value.

Legend:
Streptococcus pneumoniae = assay: Minimum inhibition concentration against Streptococcus pneumoniae Type I strain; assay type: functional
Pseudomonas aeruginosa = assay: Minimum inhibition concentration against Pseudomonas aeruginosa U-31 strain; assay type: functional
Staphylococcus aureus [1] = assay: Minimum inhibition concentration against Staphylococcus aureus FDA209P strain; assay type: functional
Escherichia coli [2] = assay: Minimum inhibition concentration against Escherichia coli NIHJ JC-2 strain; assay type: functional
Enterococcus faecalis = assay: Minimum inhibition concentration against Enterococcus faecalis LS-101 strain; assay type: functional
[3] = molecular target: T1, GABA-A receptor; anion channel (Homo sapiens) (UniProt P14867+P47870+P18507+P28472+P48169+Q99928+Q9UN88+P34903+O00591+O14764+Q8N1C3+P18505+P78334+P47869+P31644+Q16445); assay: Percentage of GABA-induced chloride currents with compound alone at 10 e-4 M; assay type: functional; conditions: Bull Frog
Staphylococcus aureus [4] = assay: Minimum inhibition concentration against Staphylococcus aureus MRSA strain; assay type: functional
[5] = molecular target: T1, GABA-A receptor; anion channel (Homo sapiens); assay: Percentage of GABA-induced chloride currents with 10e-4 M 4-biphenylacetic acid; assay type: functional; conditions: Bull Frog
[6] = molecular target: GABA-A receptor; anion channel; assay: Inhibition of [3H]muscimol binding to GABA A receptor 4-biphenylacetic acid at 10 e-4 M; assay type: protein-complex assay
[7] = molecular target: T1, GABA-A receptor; anion channel (Homo sapiens); assay: Percentage of GABA-induced chloride currents with 10 e-5 M 4-biphenylacetic acid; assay type: functional; conditions: Bull Frog
Mus musculus [8] = assay: Percentage of mice with convulsion with compound alone at 400 mg/kg; assay type: functional
[9] = molecular target: GABA-A receptor; anion channel; assay: Inhibition of [3H]muscimol binding to GABA A receptor with compound alone at 10 e-4 M; assay type: protein-complex assay
Mus musculus [10] = assay: Percentage of mice with convulsion (400 mg/kg fenbufen); assay type: functional
Escherichia coli [11] = assay: Minimum inhibitory concentration against Escherichia coli KC14 strain; assay type: functional
Staphylococcus aureus [12] = assay: Effective dose against Staphylococcus aureus smith strain in mouse; assay type: functional
Escherichia coli [13] = assay: Effective dose against Escherichia coli KC14 strain in mouse; assay type: functional
Staphylococcus aureus [14] = assay: Minimum inhibitory concentration against Staphylococcus aureus Smith; assay type: functional
[15] = molecular target: T1, GABA-A receptor; anion channel (Homo sapiens); assay: Percentage of GABA-induced chloride currents, compound with 10E-4 M 4-biphenylacetic acid; assay type: functional; conditions: Bull Frog
[16] = The compound was evaluated for the solubility in water at 25 degrees Centigrade; assay type: ADME
[17] = molecular target: GABA-A receptor; anion channel; assay: Inhibition of [3H]muscimol binding to GABA A receptor with 10 e-4 M 4-biphenylacetic acid; assay type: protein-complex assay

| Structure (SMILES) | MIC (Streptococcus pneumoniae) [µg/mL] | MIC (Pseudomonas aeruginosa) [µg/mL] | MIC (Staphylococcus aureus [1]) [µg/mL] | MIC (Escherichia coli [2]) [µg/mL] | MIC (Enterococcus faecalis) [µg/mL] | Currents [3] [%] | MIC (Staphylococcus aureus [4]) [µg/mL] | Currents [7] [%] | Convulsion (Mus musculus [8]) [%] | IC50 [9] [µM] | Convulsion (Mus musculus [10]) [%] | other results |
| --- | --- | --- | --- | --- | --- | --- | --- | --- | --- | --- | --- | --- |
| NCC1CN(c2c(F)cc3c(=O)c(C(=O)O)cn(CCF)c3c2F)CCO1 (stereo not given) | 3.13 (≈ 8.12 µM) | 25 (≈ 64.9 µM) | 0.78 (≈ 2.02 µM) | 6.25 (≈ 16.2 µM) | 0.78 (≈ 2.02 µM) | – | – | – | – | – | – | – |
| O=C(O)c1cn(C2CC2)c2c(F)c(N3CCNCC3)c(F)cc2c1=O | 0.39 (≈ 1.12 µM) | 0.1 (≈ 0.286 µM) | 0.1 (≈ 0.286 µM) | 0.006 (≈ 0.0172 µM) | 0.2 (≈ 0.573 µM) | 81 | 0.78 (≈ 2.23 µM) | 11 | 0 | 64 | 88 | Currents [5]: 0%; IC50 ([6]; read-out: IC50): 0.12 µM |
| CC1COc2c(N3CCN(C)CC3)c(F)cc3c(=O)c(C(=O)O)cn1c23 (stereo not given) [OFLOXACIN] | 0.78 (≈ 2.16 µM) | 0.78 (≈ 2.16 µM) | 0.2 (≈ 0.553 µM) | 0.1 (≈ 0.277 µM) | 0.78 (≈ 2.16 µM) | 94 | – | 87 | 0 | > 100 | 0 | MIC (Escherichia coli [11]): 0.05 µg/mL (≈ 0.138 µM); Currents [5]: 39%; IC50 ([6]; read-out: IC50): 11 µM; ED50 (Staphylococcus aureus [12]): 0.27 mg mouse-1; ED50 (Escherichia coli [13]): 0.009 mg mouse-1; MIC (Staphylococcus aureus [14]): 0.2 µg/mL (≈ 0.553 µM) |
| O=C(O)c1cn(C2CC2)c2c(F)c(N3CCOCC3)c(F)cc2c1=O | 0.39 (≈ 1.11 µM) | 0.78 (≈ 2.23 µM) | 0.025 (≈ 0.0714 µM) | 0.1 (≈ 0.285 µM) | 0.78 (≈ 2.23 µM) | 91 | 0.05 (≈ 0.143 µM) | 91 | 0 | > 100 | 0 | MIC (Escherichia coli [11]): 0.1 µg/mL (≈ 0.285 µM); IC50 ([6]; read-out: IC50): > 100 µM; ED50 (Staphylococcus aureus [12]): 1.304 mg mouse-1; ED50 (Escherichia coli [13]): 0.056 mg mouse-1; MIC (Staphylococcus aureus [14]): 0.05 µg/mL (≈ 0.143 µM); Currents [15]: 71%; solubility [16]: 9 µg/mL (≈ 25.7 µM) |
| O=C(O)c1cn(C2CC2)c2cc(N3CCOCC3)c(F)cc2c1=O | 3.13 (≈ 9.42 µM) | 1.56 (≈ 4.69 µM) | 0.05 (≈ 0.15 µM) | 0.2 (≈ 0.602 µM) | 0.78 (≈ 2.35 µM) | 100 | 0.1 (≈ 0.301 µM) | 99 | 0 | > 100 | 0 | IC50 [17]: > 100 µM; Currents [5]: 91% |
| O=C(O)c1cn(C2CC2)c2cc(N3CCNCC3)c(F)cc2c1=O [CIPROFLOXACIN] | 0.39 (≈ 1.18 µM) | 0.1 (≈ 0.302 µM) | 0.1 (≈ 0.302 µM) | – | 0.39 (≈ 1.18 µM) | 64 | 1.56 (≈ 4.71 µM) | 0 | 0 | 100 | 63 | MIC (Escherichia coli [11]): < 0.006 µg/mL; IC50 [6]: 0.41 µM; ED50 (Staphylococcus aureus [12]): 0.354 mg mouse-1; ED50 (Escherichia coli [13]): 0.007 mg mouse-1; MIC (Staphylococcus aureus [14]): 0.1 µg/mL (≈ 0.302 µM) |
| NCC1CN(c2c(F)cc3c(=O)c(C(=O)O)cn(-c4cc(F)cc(F)c4)c3c2F)CCO1 (stereo not given) | 0.2 (≈ 0.443 µM) | 6.25 (≈ 13.8 µM) | 0.2 (≈ 0.443 µM) | 0.39 (≈ 0.864 µM) | 0.39 (≈ 0.864 µM) | – | – | – | – | – | – | – |

Second part, led by results:

| MIC (Streptococcus pneumoniae) [µg/mL] | MIC (Pseudomonas aeruginosa) [µg/mL] | MIC (Staphylococcus aureus [1]) [µg/mL] | MIC (Escherichia coli [2]) [µg/mL] | MIC (Enterococcus faecalis) [µg/mL] | Structure (SMILES) | Currents [3] [%] | MIC (Staphylococcus aureus [4]) [µg/mL] | Currents [7] [%] | Convulsion (Mus musculus [8]) [%] | IC50 [9] [µM] | Convulsion (Mus musculus [10]) [%] | other results |
| --- | --- | --- | --- | --- | --- | --- | --- | --- | --- | --- | --- | --- |
| 6.25 (≈ 14 µM) | 50 (≈ 112 µM) | 0.78 (≈ 1.74 µM) | 3.13 (≈ 6.99 µM) | 25 (≈ 55.9 µM) | O=C(O)c1cn(C2CC2)c2c(F)c(N3CCOC(CN4CCCCC4)C3)c(F)cc2c1=O (stereo not given) | – | – | – | – | – | – | – |
| 0.1 (≈ 0.23 µM) | 6.25 (≈ 14.4 µM) | 0.1 (≈ 0.23 µM) | 0.39 (≈ 0.896 µM) | 0.39 (≈ 0.896 µM) | CCN(CC)CC1CN(c2c(F)cc3c(=O)c(C(=O)O)cn(C4CC4)c3c2F)CCO1 (stereo not given) | – | – | – | – | – | – | – |
| 0.78 (≈ 1.85 µM) | 12.5 (≈ 29.7 µM) | 0.2 (≈ 0.475 µM) | 1.56 (≈ 3.7 µM) | 0.78 (≈ 1.85 µM) | CC(=O)NCC1CN(c2c(F)cc3c(=O)c(C(=O)O)cn(C4CC4)c3c2F)CCO1 (stereo not given) | – | – | – | – | – | – | – |
| 0.39 (≈ 0.991 µM) | 12.5 (≈ 31.8 µM) | 0.2 (≈ 0.508 µM) | 1.56 (≈ 3.97 µM) | 0.39 (≈ 0.991 µM) | NCCC1CN(c2c(F)cc3c(=O)c(C(=O)O)cn(C4CC4)c3c2F)CCO1 (stereo not given) | – | – | – | – | – | – | – |
